Laboratory results published in patent US9604933B2, “Pyrazolochalcones as potential anticancer agents” (COUNCIL OF SCIENTIFIC AND INDUSTRIAL RESEARCH, priority 2013, dated 2017).
Where two headings read alike, the source gives them in different places.

Key:
SW-620 = test: NCI SRB cytotoxicity, colon SW-620; format: cell-based; settings: Homo sapiens, 48 h exposure
Protocol: (§1) The pyrazolochalcones (7e, 8e, 10e, 11e, 12e, 13e and 8f) have been tested against fifty nine human tumor cell lines derived from nine cancer types (leukemia, non-small cell lung cancer, colon cancer, CNS cancer, melanoma, ovarian cancer, renal cancer, prostate cancer and breast cancer) as per the NCI protocol. For each compound, dose response curves for individual cell lines have been measured at a minimum of five concentrations at 10 fold dilutions. A protocol of 48 h continuous drug exposure has been used, and a sulforhodamine B (SRB) protein assay has been used to estimate cell viability or growth. The concentration for 50% cell growth inhibition (GI50), 50% cell death (LC50, 50% growth) and total cell growth inhibition (TGI, 0% growth) values were tabulated (Table-1). DMSO was used as control to calculate the values of GI50, LC50 and TGI. The compounds 7e, 8e, 10e, 11e, 12e, 13e and 8f has been evaluated for their in vitro cytotoxicity in […] cell lines from nine human cancer types of leukemia (K-562, SR), non-small cell lung (Hop-62, NCI-H226, NCI-H522), colon (HCT-116, HCT-15, HCC-2998), CNS (SF-539), melanoma (SK-MEL-5, UACC-62, M14), ovarian (IGROV1), renal (A498), prostate (PC3) and breast (BT-549, MDA-MB-435, HS578T) origin. The results are expressed as percent of cell growth determined relative to that of untreated control cells (Table 2).

Breast = test: NCI SRB cytotoxicity, breast panel average; format: cell-based, human; settings: average of cell lines
Protocol: as §1
(§2) Each cancer type represents the average of six to eight different cancer cell lines.

COLO-205 = test: NCI SRB cytotoxicity, colon COLO-205; format: cell-based; settings: Homo sapiens, 48 h exposure
Protocol: as §1

SF-268 = test: NCI SRB cytotoxicity, CNS SF-268; format: cell-based; settings: Homo sapiens, 48 h exposure
Protocol: as §1

CNS = test: NCI SRB cytotoxicity, CNS panel average; format: cell-based, human; settings: average of cell lines
Protocol: as §1, §2

Ovarian = test: NCI SRB cytotoxicity, ovarian panel average; format: cell-based, human; settings: average of cell lines
Protocol: as §1, §2

TK-10 = test: NCI SRB cytotoxicity, renal TK-10; format: cell-based; settings: Homo sapiens, 48 h exposure
Protocol: as §1

OVCAR-8 = test: NCI SRB cytotoxicity, ovarian OVCAR-8; format: cell-based; settings: Homo sapiens, 48 h exposure
Protocol: as §1

PC-3 = test: NCI SRB cytotoxicity, prostate PC-3; format: cell-based; settings: Homo sapiens, 48 h exposure
Protocol: as §1

UACC-62 = test: NCI SRB cytotoxicity, melanoma UACC-62; format: cell-based; settings: Homo sapiens, 48 h exposure
Protocol: as §1

MOLT-4 = test: NCI SRB cytotoxicity, leukemia MOLT-4; format: cell-based; settings: Homo sapiens, 48 h exposure
Protocol: as §1

MDA-MB-435 [1] = test: NCI SRB cytotoxicity, breast panel MDA-MB-435; format: cell-based; settings: Homo sapiens, 48 h exposure
Protocol: as §1

MDA-MB-231/ATCC = test: NCI SRB cytotoxicity, breast MDA-MB-231/ATCC; format: cell-based; settings: Homo sapiens, 48 h exposure
Protocol: as §1

HOP-62 = test: NCI SRB cytotoxicity, non-small cell lung HOP-62; format: cell-based; settings: Homo sapiens, 48 h exposure
Protocol: as §1

ACHN = test: NCI SRB cytotoxicity, renal ACHN; format: cell-based; settings: Homo sapiens, 48 h exposure
Protocol: as §1

Prostate = test: NCI SRB cytotoxicity, prostate panel average; format: cell-based, human; settings: average of cell lines
Protocol: as §1, §2

OVCAR-3 = test: NCI SRB cytotoxicity, ovarian OVCAR-3; format: cell-based; settings: Homo sapiens, 48 h exposure
Protocol: as §1

SK-MEL-2 = test: NCI SRB cytotoxicity, melanoma SK-MEL-2; format: cell-based; settings: Homo sapiens, 48 h exposure
Protocol: as §1

HCT-116 = test: NCI SRB cytotoxicity, colon HCT-116; format: cell-based; settings: Homo sapiens, 48 h exposure
Protocol: as §1

MDA-MB-435 [2] = test: NCI SRB cytotoxicity, melanoma MDA-MB-435; format: cell-based; settings: Homo sapiens, Melanoma panel MDA-MB-435, 48 h exposure
Protocol: as §1

HS 578T = test: NCI SRB cytotoxicity, breast HS 578T; format: cell-based; settings: Homo sapiens, 48 h exposure
Protocol: as §1

Leukemia = test: NCI SRB cytotoxicity, leukemia panel average; format: cell-based, human; settings: average of cell lines
Protocol: as §1, §2

CAKI-1 = test: NCI SRB cytotoxicity, renal CAKI-1; format: cell-based; settings: Homo sapiens, 48 h exposure
Protocol: as §1

SF-539 = test: NCI SRB cytotoxicity, CNS SF-539; format: cell-based; settings: Homo sapiens, 48 h exposure
Protocol: as §1

Colon = test: NCI SRB cytotoxicity, colon panel average; format: cell-based, human; settings: average of cell lines
Protocol: as §1, §2

HCC-2998 = test: NCI SRB cytotoxicity, colon HCC-2998; format: cell-based; settings: Homo sapiens, 48 h exposure
Protocol: as §1

HCT-15 = test: NCI SRB cytotoxicity, colon HCT-15; format: cell-based; settings: Homo sapiens, 48 h exposure
Protocol: as §1

human tumor cell lines = test: NCI SRB cytotoxicity, all fifty nine human tumor cell lines; format: cell-based; set-up: Log10 TGI mean graph midpoint (MG_MID): unit not given here; settings: for GI50: Homo sapiens
Protocol: as §1
The mean graph midpoint values of Log10 TGI and Log10 LC50 as well as Log10 GI50 for compounds 7e, 8e, 10e, 11e, 12e, 13e and 8f is listed in Table-3. […] The mean graph mid points of Log10 TGI and Log10, LC50 have shown similar pattern to the log10 GI50 mean graph mid points.

HT29 = test: NCI SRB cytotoxicity, colon HT29; format: cell-based; settings: Homo sapiens, HT-29, 48 h exposure
Protocol: as §1

RPMI-8226 = test: NCI SRB cytotoxicity, leukemia RPMI-8226; format: cell-based; settings: Homo sapiens, 48 h exposure
Protocol: as §1

A549/ATCC = test: NCI SRB cytotoxicity, non-small cell lung A549/ATCC; format: cell-based; settings: Homo sapiens, 48 h exposure
Protocol: as §1

NCIH322M = test: NCI SRB cytotoxicity, non-small cell lung NCIH322M; format: cell-based; settings: Homo sapiens, NCI-H322M, 48 h exposure
Protocol: as §1

NCI-H522 = test: NCI SRB cytotoxicity, non-small cell lung NCI-H522; format: cell-based; settings: Homo sapiens, 48 h exposure
Protocol: as §1

[3] = Homo sapiens, read-out: Log10 LC50 (concentration in mol/L causing 50% cell death) (converted)

COc1ccc(C(=O)/C=C/c2cc(-c3ccc4c(c3)OCO4)n[nH]2)cc1OC [8f, (E)-3-(3-(benzo[d][1,3]dioxol-5-yl)-1H-pyrazol-5-yl)-1-(3,4-dimethoxyphenyl)prop-2-en-1-one]
GI50 (SW-620): 2050 nM
CC50 (Breast; [3]): 39800 nM
Log10 GI50 (concentration in mol/L causing 50% growth inhibition) (Breast): −4.76 mol/L
Log10 TGI (concentration in mol/L causing total growth inhibition (0% growth)) (Breast): −5.05 mol/L
GI50 (COLO-205): 3840 nM
GI50 (SF-268): 2530 nM
LC50 (CNS; [3]): 0.000155 mol/L
Log10 GI50 (concentration in mol/L causing 50% growth inhibition) (CNS): −5.65 mol/L
Log10 TGI (concentration in mol/L causing total growth inhibition (0% growth)) (CNS): −5.14 mol/L
CC50 (Ovarian; [3]): 52500 nM
Log10 GI50 (concentration in mol/L causing 50% growth inhibition) (Ovarian): −5.58 mol/L
Log10 TGI (concentration in mol/L causing total growth inhibition (0% growth)) (Ovarian): −4.87 mol/L
GI50 (TK-10): 2800 nM
GI50 (OVCAR-8): 2150 nM
GI50 (PC-3): 2500 nM
GI50 (UACC-62): 4100 nM
GI50 (MOLT-4): 3000 nM
GI50 (MDA-MB-435 [1]): 1800 nM
GI50 (MDA-MB-231/ATCC): 2400 nM
GI50 (HOP-62): 2080 nM
GI50 (ACHN): 3490 nM
CC50 (Prostate; [3]): 31600 nM
Log10 GI50 (concentration in mol/L causing 50% growth inhibition) (Prostate): −5.66 mol/L
Log10 TGI (concentration in mol/L causing total growth inhibition (0% growth)) (Prostate): −5.05 mol/L
GI50 (OVCAR-3): 2020 nM
GI50 (SK-MEL-2): 6930 nM
GI50 (HCT-116): 2430 nM
GI50 (MDA-MB-435 [2]): 3030 nM
GI50 (HS 578T): 2600 nM
CC50 (Leukemia; [3]): 0.0001 mol/L
Log10 GI50 (concentration in mol/L causing 50% growth inhibition) (Leukemia): −5.69 mol/L
Log10 TGI (concentration in mol/L causing total growth inhibition (0% growth)) (Leukemia): −5.03 mol/L
GI50 (CAKI-1): 1900 nM
GI50 (SF-539): 1910 nM
LC50 (Colon; [3]): 0.000676 mol/L
Log10 GI50 (concentration in mol/L causing 50% growth inhibition) (Colon): −5.52 mol/L
Log10 TGI (concentration in mol/L causing total growth inhibition) (Colon): −4.85 mol/L
GI50 (HCC-2998): 4990 nM
GI50 (HCT-15): 2810 nM
GI50 (human tumor cell lines; across fifty nine cell lines in nine cell panels, read-out: GI50 value range): 180 to 29200 nM
GI50 (human tumor cell lines; against human tumor cell lines, read-out: Log10 GI50 mean graph midpoint (MG_MID) (converted)): 2750 nM
cytotoxicity (human tumor cell lines; against cancer cell lines, in words): significant cytotoxicity
Log10 TGI mean graph midpoint (MG_MID) (human tumor cell lines; against human tumor cell lines): −4.98
LC50 (human tumor cell lines; against human tumor cell lines, read-out: Log10 LC50 mean graph midpoint (MG_MID) (converted)): 43700 nM
GI50 (HT29): 2980 nM
GI50 (RPMI-8226): 1030 nM
GI50 (A549/ATCC): 2700 nM
GI50 (NCIH322M): 2480 nM
GI50 (NCI-H522): 1820 nM
